Results reported in ChEMBL document CHEMBL3297689, “Phenylalanine-Based Inactivator of AKT Kinase: Design, Synthesis, and Biological Evaluation” (ACS Med Chem Lett, 2014).
The source made the active and inactive calls. No cut-off for these calls is given here. Where a SMILES comes first, the peptide text is derived from it. [ ]: non-standard residue; d: D form. NMeV = CN[C@H](C(=O)O)C(C)C; GABA = NCCCC(=O)O

Legend:
[1] = target: T1, RAC-alpha serine/threonine-protein kinase (Homo sapiens, UniProt P31749); assay: Inhibition of AKT1 (unknown origin) after 1 hr by Z'-LYTE kinase assay in presence of 75 uM ATP
T1 sequence (P31749 whole entry): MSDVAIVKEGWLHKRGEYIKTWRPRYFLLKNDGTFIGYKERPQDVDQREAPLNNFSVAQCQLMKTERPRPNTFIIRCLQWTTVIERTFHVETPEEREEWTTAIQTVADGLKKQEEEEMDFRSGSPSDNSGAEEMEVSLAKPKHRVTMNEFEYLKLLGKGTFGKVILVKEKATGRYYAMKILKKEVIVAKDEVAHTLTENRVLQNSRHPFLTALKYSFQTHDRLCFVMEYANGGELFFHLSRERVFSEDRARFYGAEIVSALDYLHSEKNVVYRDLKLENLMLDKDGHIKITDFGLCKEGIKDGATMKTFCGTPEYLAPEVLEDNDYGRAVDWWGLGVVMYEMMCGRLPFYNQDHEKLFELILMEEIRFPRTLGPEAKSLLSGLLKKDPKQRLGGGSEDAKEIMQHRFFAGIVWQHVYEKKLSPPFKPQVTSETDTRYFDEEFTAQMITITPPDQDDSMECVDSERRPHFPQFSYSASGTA

[2] = target: T1, RAC-alpha serine/threonine-protein kinase; assay: Binding affinity to AKT1 (unknown origin) assessed as covalent modification at Cys310 residue by mass spectrometry
[3] = target: T1, RAC-alpha serine/threonine-protein kinase; assay: Inhibition of AKT1 (unknown origin) after 30 mins by scintillation counting analysis in presence of 100 uM ATP

SMILES | IC50 [1] [µM] | other results
CC(C)(C)OC(=O)N[C@@H](Cc1ccccc1)C(=O)NCCN1C(=O)C=CC1=O | 4.48 | 
C=CC(=O)[C@H](Cc1ccccc1)NC(=O)OCc1cn(CCCCCCNC(=S)Nc2ccc(-c3c4ccc(=O)cc-4oc4cc(O)ccc34)c(C(=O)O)c2)nn1 |  | Activity [2]: Active
CC(C)(C)OC(=O)NN(Cc1ccccc1)C(=O)CI | 16.1 | 
C=CC(=O)N(Cc1ccccc1)NC(=O)OC(C)(C)C | > 100 | 
CC(C)(C)OC(=O)N[C@@H](Cc1ccccc1)C(=O)NCCI | > 100 | 
CC(C)(C)OC(=O)NN(Cc1ccccc1)C(=O)CN1C(=O)C=CC1=O | 4.68 | 
COC[C@H](NC(=O)[C@H](Cc1ccc(O)cc1)NC(=O)[C@H](C(C)C)N(C)C(=O)[C@H](CCCNC(=N)N)NC(=O)[C@@H]1CCCN1C(=O)[C@@H](N)CCCNC(=N)N)C(=O)NCCCC(=O)O (H-RPR[NMeV]YS(Me)[GABA]-OH) |  | IC50 [3]: 0.2 µM
